From PubChem BioAssay AID588632 (Broad Institute, 2011)
Inconclusive results are not listed. Calls of active or inactive are those of the source.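 How the source made its calls: active means compounds lowering signal with fitted half-maximal concentration within ten times the top tested dose in every test run; inconclusive means test runs disagree, or a run had a weak flat or poor fit; inactive means every test run inactive.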

biological target: Serine/threonine-protein kinase 33 (Homo sapiens) (UniProt Q9BYT3); experiment: inhibition of purified STK33 phosphorylating MBP – biochemical, ADP-Glo luminescence, dry powder, dose response (AID 588632); details: purified STK33, MBP phosphorylation
Sequence (Q9BYT3 whole entry, looked up): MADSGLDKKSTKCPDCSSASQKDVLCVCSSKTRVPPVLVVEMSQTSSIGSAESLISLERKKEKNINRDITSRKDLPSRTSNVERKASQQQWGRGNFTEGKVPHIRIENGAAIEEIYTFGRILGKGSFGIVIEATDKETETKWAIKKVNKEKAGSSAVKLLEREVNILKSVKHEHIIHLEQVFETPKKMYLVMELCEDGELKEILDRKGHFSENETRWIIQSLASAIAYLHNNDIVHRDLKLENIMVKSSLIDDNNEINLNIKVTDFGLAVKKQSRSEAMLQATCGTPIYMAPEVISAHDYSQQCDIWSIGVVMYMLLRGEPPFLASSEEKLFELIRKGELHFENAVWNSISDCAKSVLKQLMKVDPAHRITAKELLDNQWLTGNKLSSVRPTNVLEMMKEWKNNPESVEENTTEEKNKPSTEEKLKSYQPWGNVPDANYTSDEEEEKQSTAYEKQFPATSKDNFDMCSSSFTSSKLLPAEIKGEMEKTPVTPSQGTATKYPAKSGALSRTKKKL

| AC50 | SMILES |
| --- | --- |
| 1560 nM | COc1cc(N2CCN(C)CC2)ccc1Nc1ncc2c(n1)N(C)c1sccc1C(=O)N2C |
| 522 nM | O=C1NC(=NCc2ccccc2)S/C1=C/c1ccc(O)cc1 |
| 1580 nM | O=C(Nc1ccccc1-c1ccccc1)c1ccc(Br)o1 |
| 314 nM | COc1cc(/C=C2\SC(=Nc3ccccc3OC)NC2=O)ccc1O |
| 1600 nM | COc1cc(N2CCN(C)CC2)ccc1Nc1ncc2c(n1)N(C)c1ccccc1C(=O)N2C |
| 331 nM | O=C(Nc1ccccc1-c1nc2ccccc2[nH]c1=O)c1cccs1 |
| 400 nM | COC(=O)c1ccc(COc2ccccc2/C=C/C(=O)c2ccc(OCC(=O)O)cc2)cc1 |
| 1130 nM | CN1CCN(c2ccc(Nc3ncc4c(n3)N(C)c3ccccc3C(=O)N4C)cc2)CC1 |
| 1180 nM | COc1cc(C(=O)NC2CCN(C)CC2)ccc1Nc1ncc2c(n1)N(C1CCC(O)CC1)CCC(=O)N2C (stereo not drawn) |
| 632 nM | CC(C)n1cnc2c(Nc3cccc(Cl)c3)nc(NCCO)nc21 |
| 509 nM | COc1cc(N2CCC(O)CC2)ccc1Nc1ncc2c(n1)N1CCc3cccc(c31)C(=O)N2C |
| 1250 nM | CCOc1ccccc1C(=O)Nc1cc(Cl)ccc1O |
| 695 nM | COc1cc(/C=N/n2c(-c3ccccc3)n[nH]c2=S)ccc1O |
| 6450 nM | COc1cc(C(=O)N2CCC(N3CCN(C)CC3)CC2)ccc1Nc1ncc2c(n1)N(C)c1ccccc1C(=O)N2C |
| 409 nM | COc1cc(N2CCN(C)CC2)ccc1Nc1ncc2c(n1)N1CCC[C@H]1CC(=O)N2C |
| 939 nM | O=C1NCCCc2c1oc1ccc(O)cc21 |
| 151 nM | Nc1nc(-c2cc(O)ccc2[N+](=O)[O-])cc(-c2ccccc2)c1[N+](=O)[O-] |
| 1880 nM | COc1cc(N2CCC(N3CCN(C)CC3)CC2)ccc1Nc1ncc2c(n1)N1CCC[C@H]1CC(=O)N2C |
| 1130 nM | CC(=O)N(C)c1ccc(N=Cc2c(O)ccc3ccccc23)cc1 |
| 574 nM | COc1cc(/C=C2\SC(N)=NC2=O)ccc1O |
| 2200 nM | COc1cc(N2CCC(N3CCN(C)CC3)CC2)ccc1Nc1ncc2c(n1)N(C1CCCC1)C(C)CC(=O)N2C (stereo not drawn) |
| 811 nM | Oc1ccc(Nc2nc(-c3ccccc3O)nc3ccccc23)cc1 |
| 122 nM | CCCn1c(NC(=O)c2cccc(S(=O)(=O)N3CCCC3)c2)nc2ccccc21 |
| 910 nM | COc1cc(N2CCN(C)CC2)ccc1Nc1ncc2c(n1)N(C1CCCC1)C(C)CC(=O)N2C (stereo not drawn) |
| 168 nM | CC(Oc1ccc2c(c1)c1ccnc3c4ccccc4c(=O)n2c13)C(=O)NCCN1CCOCC1 (stereo not drawn) |
| 795 nM | Cc1ncc(/C=C2\C(=O)Nc3ccccc32)[nH]1 |

same assay, conditions: purified STK33, MBP phosphorylation, at 10 µM (top of the series)

| activity change, negative = inhibition | SMILES |
| --- | --- |
| inactive | CCC(CO)Oc1cc(NC(=O)c2ccc(Cl)cc2)c2ncn(C(C)C)c2c1 (stereo not drawn) |
| inactive | CCC(CO)Oc1cc(NC(=O)c2cccc(N)c2)c2ncn(C(C)C)c2c1 (stereo not drawn) |
| inactive | CCC(CO)Oc1cc(NC(=O)c2ccc(N)cc2)c2ncn(C(C)C)c2c1 (stereo not drawn) |
| inactive | CCC(CO)Oc1cc(NC(=O)c2ccccc2)c2ncn(C(C)C)c2c1 (stereo not drawn) |
| inactive | CCC(CO)Oc1cc(NC(=O)c2ccccc2N)c2ncn(C(C)C)c2c1 (stereo not drawn) |
| inactive | CCC(CO)Oc1cc(NC(=O)c2ccc(F)cc2)c2ncn(C(C)C)c2c1 (stereo not drawn) |
| inactive | CCC(CO)Oc1cc(NC(=O)c2ccc(C)cc2)c2ncn(C(C)C)c2c1 (stereo not drawn) |
| inactive | CCC(CO)Oc1cc(NC(=O)c2cccc(C)c2)c2ncn(C(C)C)c2c1 (stereo not drawn) |
| inactive | CCC(CO)Oc1cc(NC(=O)c2ccccc2Cl)c2ncn(C(C)C)c2c1 (stereo not drawn) |
| inactive | CCC(CO)Oc1cc(NCc2ccccc2)c2ncn(C3CCCC3)c2c1 (stereo not drawn) |
| inactive | CCC(CO)Oc1cc(NC(=O)c2ccc(OC)cc2)c2ncn(C(C)C)c2c1 (stereo not drawn) |
| inactive | CCC(CO)Oc1cc(NC(=O)c2cccc(F)c2)c2ncn(C(C)C)c2c1 (stereo not drawn) |
| inactive | COc1cc(NCc2ccccc2)c2ncn(C(C)C)c2c1 |
| inactive | CCC(CO)Oc1cc(NC(=O)c2cccc(Cl)c2)c2ncn(C(C)C)c2c1 (stereo not drawn) |
| inactive | CCC(CO)Oc1cc(NC(=O)c2ccc([N+](=O)[O-])cc2)c2ncn(C(C)C)c2c1 (stereo not drawn) |
| inactive | CCC(CO)Oc1cc(NC(=O)c2ccccc2OC)c2ncn(C(C)C)c2c1 (stereo not drawn) |
| inactive | CCC(CO)Oc1cc(NC(=O)c2ccccc2C)c2ncn(C(C)C)c2c1 (stereo not drawn) |
| inactive | CC(C)n1cnc2c(NCc3ccccc3)cc(OCCCN3CCOCC3)cc21 |
| inactive | CCC(CO)Oc1cc(NC(=O)c2cccc([N+](=O)[O-])c2)c2ncn(C(C)C)c2c1 (stereo not drawn) |
| inactive | CCC(CO)Oc1cc(NCc2ccccc2)c2ncn(C(C)C)c2c1 (stereo not drawn) |
| inactive | COCCCOc1cc(NCc2ccccc2)c2ncn(C(C)C)c2c1 |
| inactive | CCC(CO)Oc1cc(NC(=O)c2cccc(OC)c2)c2ncn(C(C)C)c2c1 (stereo not drawn) |
